Reference: PMC11873566 (Acta Pharmaceutica Sinica. B, 2024)

Target: alpha-enolase (ENO1) (Homo sapiens, UniProt P06733)
Experiment: MST with NT-647-NHS labelled recombinant ENO1
Format: binding

alpha-enolase (ENO1), sequence (P06733 2-434): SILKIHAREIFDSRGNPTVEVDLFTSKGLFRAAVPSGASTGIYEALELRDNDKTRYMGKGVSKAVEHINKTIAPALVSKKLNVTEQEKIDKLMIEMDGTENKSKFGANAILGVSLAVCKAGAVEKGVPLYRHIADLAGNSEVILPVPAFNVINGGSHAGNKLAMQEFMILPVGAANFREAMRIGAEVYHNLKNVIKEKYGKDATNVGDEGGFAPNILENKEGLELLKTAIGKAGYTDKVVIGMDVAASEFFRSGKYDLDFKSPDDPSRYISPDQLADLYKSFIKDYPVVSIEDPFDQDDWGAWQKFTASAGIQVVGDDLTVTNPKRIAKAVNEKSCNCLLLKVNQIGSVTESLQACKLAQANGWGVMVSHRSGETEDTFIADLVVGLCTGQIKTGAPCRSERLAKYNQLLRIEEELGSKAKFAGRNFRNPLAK

Compound O=c1cc(-c2ccccc2)oc2cc(O)cc(O)c12 [compound 1, chrysin] has a Kd of 15 µM.
